Source: patent US20230373962A1, “SUPRAMOLECULAR MOLECULES FOR THE TREATMENT OF CANCER” (The University of Birmingham, priority 2020, published 2023)

Assay: Solubility
Format: physicochemical
Settings: CB[10] alone

For `O=C1N2CN3C(=O)N4CN5C(=O)N6CN7C(=O)N8CN9C(=O)N%10CN%11C(=O)N%12CN%13C(=O)N%14CN%15C(=O)N%16CN%17C(=O)N%18CN%19C(=O)N%20CN1C1C2N2CN%21C(=O)N(CN%22C(=O)N(CN%23C(=O)N(CN%24C(=O)N(CN%25C(=O)N(CN%26C(=O)N(CN%27C(=O)N(CN%28C(=O)N(CN%29C(=O)N(CN1C2=O)C%20C%19%29)C%18C%17%28)C%16C%15%27)C%14C%13%26)C%12C%11%25)C%10C9%24)C8C7%23)C6C5%22)C4C3%21` (stereo not shown) [CB[10], cucurbit[10]uril], the solubility was “insoluble”.
